Measured values as given in PMC9481151, “Discovery of new symmetrical and asymmetrical nitrile-containing 1,4-dihydropyridine derivatives as dual kinases and P-glycoprotein inhibitors: synthesis, in vitro assays, and in silico studies” (Journal of Enzyme Inhibition and Medicinal Chemistry, 2022).
In brackets after ≈: the same amount, converted by molar mass. Where two headings read alike, the source gives them in different places. Blank lines part the entries; values can stand above or below the molecule they belong to.

Columns and labels:
C. albicans = assay: MIC, two-fold microbroth dilution method; details: Candida albicans, read-out: MIC (µg/mL) C. albicans
Candida albicans = assay: Agar well diffusion method
Aspergillus flavus = assay: Agar well diffusion method
[1] = tested on: fungi (Candida albicans and Aspergillus flavus); assay: Agar well diffusion method, summary; details: range over strains
A. flavus = assay: MIC, two-fold microbroth dilution method; details: Aspergillus flavus, read-out: MIC (µg/mL) A. flavus
E. coli = assay: MIC, two-fold microbroth dilution method; details: Escherichia coli, read-out: MIC (µg/mL) E. coli
Staphylococcus aureus = assay: Agar well diffusion method
[2] = tested on: G positive and G negative bacteria; assay: Agar well diffusion method, summary; type: cell-based; details: reference drug, range over four strains
Excerpt: As a control, DMSO solvent was employed.

S. aureus = assay: MIC, two-fold microbroth dilution method; details: Staphylococcus aureus
Pseudomonas aeruginosa = assay: Agar well diffusion method
Bacillus subtilis = assay: Agar well diffusion method
B. subtilis = assay: MIC, two-fold microbroth dilution method; details: Bacillus subtilis
Escherichia coli = assay: Agar well diffusion method
P. aeruginosa = assay: MIC, two-fold microbroth dilution method; details: Pseudomonas aeruginosa, read-out: MIC (µg/mL) P. aeruginosa
L-type calcium channels = details: cited from earlier work

MIC (C. albicans): 2 µg/mL (≈ 5.8 µM)
MIC (A. flavus): 1 µg/mL (≈ 2.9 µM)
SMILES: Clc1ccccc1C(c1ccccc1)(c1ccccc1)n1ccnc1 [Clotrimazole, reference compound]
zone of inhibition at 1000 µg/mL (Candida albicans; Candida albicans, 24 h, read-out: Diameter of inhibition zone, C. albicans): 27 mm
% activity index, C. albicans (Candida albicans; relative to clotrimazole): 100%
zone of inhibition at 1000 µg/mL (Aspergillus flavus; Aspergillus flavus, 24 h, read-out: Diameter of inhibition zone, A. flavus): 25 mm
% activity index, A. flavus (Aspergillus flavus; relative to clotrimazole): 100%
DIZs against fungi [1]: 25–27 mm

SMILES: O=C(O)c1cn(C2CC2)c2cc(N3CCNCC3)c(F)cc2c1=O [Ciprofloxacin, reference compound]
MIC (E. coli): 0.5 µg/mL (≈ 1.51 µM)
zone of inhibition at 1000 µg/mL (Staphylococcus aureus; Staphylococcus aureus, 24 h, read-out: Diameter of inhibition zone, S. aureus): 24 mm
% activity index, S. aureus (Staphylococcus aureus; relative to ciprofloxacin): 100%
DIZs against bacteria [2]: 23–26 mm
MIC (S. aureus; 24 h, read-out: MIC, S. aureus): 1 µg/mL (≈ 3.02 µM)
MIC (S. aureus; read-out: MIC (µg/mL) S. aureus): 1 µg/mL (≈ 3.02 µM)
zone of inhibition at 1000 µg/mL (Pseudomonas aeruginosa; Pseudomonas aeruginosa, 24 h, read-out: Diameter of inhibition zone, P. aeruginosa): 23 mm
% activity index, P. aeruginosa (Pseudomonas aeruginosa; relative to ciprofloxacin): 100%
zone of inhibition at 1000 µg/mL (Bacillus subtilis; Bacillus subtilis, 24 h, read-out: Diameter of inhibition zone, B. subtilis): 23 mm
% activity index, B. subtilis (Bacillus subtilis; relative to ciprofloxacin): 100%
MIC (B. subtilis; 24 h, read-out: MIC, B. subtilis): 2 µg/mL (≈ 6.04 µM)
MIC (B. subtilis; read-out: MIC (µg/mL) B. subtilis): 2 µg/mL (≈ 6.04 µM)
zone of inhibition at 1000 µg/mL (Escherichia coli; Escherichia coli, 24 h, read-out: Diameter of inhibition zone, E. coli): 26 mm
% activity index, E. coli (Escherichia coli; relative to ciprofloxacin): 100%
MIC (P. aeruginosa): 1 µg/mL (≈ 3.02 µM)

SMILES: COC(=O)C1=C(C)NC(C)=C(C(=O)OCCCN2CCC(c3ccccc3)(c3ccccc3)CC2)[C@@H]1c1cccc([N+](=O)[O-])c1 [Dexniguldipine, dexniguldipine]
times less potent than (+)-niguldipine in its interaction with L-type calcium channels (L-type calcium channels): 40
